{"source": "paper PMC10977697", "about": "(PLOS ONE, 2024)", "key": {"Her3-Fc [1]": {"target": "T1, Her3-Fc (Homo sapiens, UniProt P21860)", "T1 construct": "purchased R&D 348-RB", "T1 sequence (P21860 20-643 limits assumed)": "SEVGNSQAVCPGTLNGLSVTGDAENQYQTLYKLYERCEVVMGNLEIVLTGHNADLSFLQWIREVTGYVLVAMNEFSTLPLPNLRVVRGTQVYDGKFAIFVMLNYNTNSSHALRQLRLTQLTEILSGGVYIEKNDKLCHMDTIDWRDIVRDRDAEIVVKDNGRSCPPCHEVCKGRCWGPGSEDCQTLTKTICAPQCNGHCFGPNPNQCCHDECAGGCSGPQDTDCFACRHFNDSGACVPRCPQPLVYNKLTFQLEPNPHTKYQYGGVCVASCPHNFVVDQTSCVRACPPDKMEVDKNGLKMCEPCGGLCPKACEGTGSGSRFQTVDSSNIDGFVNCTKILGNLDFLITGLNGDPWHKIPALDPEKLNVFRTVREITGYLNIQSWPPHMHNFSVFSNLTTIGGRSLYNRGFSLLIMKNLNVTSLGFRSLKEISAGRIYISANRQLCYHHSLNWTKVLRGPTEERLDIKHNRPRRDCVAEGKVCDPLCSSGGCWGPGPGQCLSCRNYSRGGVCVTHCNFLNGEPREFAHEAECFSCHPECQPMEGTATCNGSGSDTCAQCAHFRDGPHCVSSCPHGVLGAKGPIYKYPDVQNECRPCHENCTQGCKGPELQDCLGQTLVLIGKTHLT", "assay": "SPR binding to Her3-Fc", "details": "Biacore S200, 25°C; Her3-Fc Avi-tag on chip SA; HBS-EP+ plus 1% DMSO; MCK", "procedure": "All binding experiments were performed using a Biacore S200 instrument (GE Healthcare) at 25°C at a flow rate of 50 μL/min. The kinetics and affinity measurements were carried out using either single-cycle or multi-cycle kinetics (SCK or MCK), solvent corrected and referenced by subtracting the signal to the blank flow cell. Binding affinity and kinetic parameters (association and dissociation rate constants, and dissociation equilibrium constant) were calculated with the Biacore S200 Evaluation Software (version 1.1.1, Cytiva) using either a 1:1 binding model or a steady-state equilibrium model (according to the manufacturer’s instructions).\nHer3-Fc Avi-tag (R&D) was captured at about 1200 and 3000 RU on Series S Sensor Chip SA (Cytiva). The SPR measurements were done in HBS-EP+ buffer (0.01 M HEPES pH 7.4, 0.15 M NaCl, 3 mM EDTA, 0.05% v/v Surfactant P20) plus 1% v/v DMSO."}, "Her3-Fc [2]": {"target": "T1, Her3-Fc", "assay": "Spot phage ELISA, Her3-Fc", "format": "binding"}}, "data": [{"compound": "CC(C)C[C@@H]1NC(=O)[C@H](CCCNC(=N)N)NC(=O)[C@H](CCC(N)=O)NC(=O)[C@@H]2CSSC[C@@H](C(=O)N[C@@H](CCC(=O)O)C(=O)N[C@@H](CCC(=O)O)C(=O)O)NC(=O)[C@H](CCCCN)NC(=O)[C@@H]3CSSC[C@H](NC(=O)[C@H](CCC(=O)O)NC(=O)[C@H](CCCCN)NC(=O)[C@H](CO)NC(=O)[C@H]([C@@H](C)O)NC(=O)[C@H]([C@@H](C)O)NC(=O)[C@@H](NC(=O)[C@H](CO)NC(=O)[C@@H](N)C(C)C)CSSC[C@H](NC(=O)[C@H](CCC(N)=O)NC(=O)[C@H](CCC(=O)O)NC(=O)CNC(=O)[C@H](Cc4c[nH]c5ccccc45)NC(=O)[C@H](CO)NC(=O)[C@H]([C@@H](C)O)NC(=O)[C@H](CC(N)=O)NC(=O)[C@H](Cc4c[nH]cn4)NC1=O)C(=O)N[C@@H](C(C)C)C(=O)N[C@@H]([C@@H](C)O)C(=O)N[C@@H](CCCCN)C(=O)N[C@@H](Cc1ccccc1)C(=O)N3)C(=O)N[C@@H](Cc1c[nH]c3ccccc13)C(=O)N[C@@H](CO)C(=O)N[C@@H](C(C)C)C(=O)N2", "note": "[Her3-Fc_ChTx1]", "values": [{"measurement": "Kd", "setting": "Her3-Fc [1]", "result": "> 10", "unit": "µM"}, {"measurement": "S/N", "setting": "Her3-Fc [2]; ratio of signal for target protein over BSA background", "result": 22.6}, {"measurement": "ELISA", "setting": "Her3-Fc [2]; spot phage ELISA signal, DCP displayed on M13 p8, L1 2", "result": 1.74}]}]}
